Reference: patent US8013153B2, “Substituted pyrimidine kinase inhibitors” (Janssen Pharmaceutica, N.V., priority 2006, dated 2011)
Read-outs that look alike come from different tables or passages of the source.

What was measured:
murine Aurora-A = molecular target: T1, murine Aurora-A (Mus musculus, UniProt P97477); experiment: Aurora-A Screening Assay; assay type: biochemical
T1 construct: replaced with the full length protein encoding the murine Aurora-A; made in house; host or cells: sf9 insect cells
T1 sequence (P97477 1-395): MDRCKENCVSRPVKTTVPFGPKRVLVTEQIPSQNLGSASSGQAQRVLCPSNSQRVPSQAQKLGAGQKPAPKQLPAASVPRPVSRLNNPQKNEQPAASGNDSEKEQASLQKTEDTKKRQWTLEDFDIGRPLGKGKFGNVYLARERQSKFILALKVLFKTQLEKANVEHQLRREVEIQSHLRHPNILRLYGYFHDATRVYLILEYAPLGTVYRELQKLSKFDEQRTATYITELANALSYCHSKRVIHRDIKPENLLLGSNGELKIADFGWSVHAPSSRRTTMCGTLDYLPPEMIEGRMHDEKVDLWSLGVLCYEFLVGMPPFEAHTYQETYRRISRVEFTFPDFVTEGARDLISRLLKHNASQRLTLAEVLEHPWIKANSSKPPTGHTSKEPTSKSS

[1] = molecular target: T2, rat VEGF-R2 kinase domain (Rattus norvegicus, UniProt O08775); experiment: VEGF-R2 Screening Assay; assay type: biochemical
T2 construct: amino acids 786-1343 of the rat VEGF-R2 kinase domain; polyhistidine (N)
T2 sequence (O08775 786-1343): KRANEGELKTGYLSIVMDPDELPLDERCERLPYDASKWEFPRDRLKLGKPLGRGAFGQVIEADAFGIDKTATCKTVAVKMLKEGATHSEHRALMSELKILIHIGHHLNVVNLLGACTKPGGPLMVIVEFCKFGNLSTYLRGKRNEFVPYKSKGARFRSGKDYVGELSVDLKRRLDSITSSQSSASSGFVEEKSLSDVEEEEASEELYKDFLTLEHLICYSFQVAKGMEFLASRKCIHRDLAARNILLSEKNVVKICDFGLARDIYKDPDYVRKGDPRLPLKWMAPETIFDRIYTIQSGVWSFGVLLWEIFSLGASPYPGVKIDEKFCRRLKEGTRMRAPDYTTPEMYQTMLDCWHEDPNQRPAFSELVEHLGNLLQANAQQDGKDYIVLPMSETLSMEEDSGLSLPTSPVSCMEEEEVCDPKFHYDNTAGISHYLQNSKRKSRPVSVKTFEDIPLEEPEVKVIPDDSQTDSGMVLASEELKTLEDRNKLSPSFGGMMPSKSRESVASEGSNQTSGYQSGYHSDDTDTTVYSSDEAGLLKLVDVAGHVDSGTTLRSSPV

HCT-116 colon carcinoma = experiment: Inhibition of in vitro cell proliferation (HCT116); assay type: cell-based, human; settings: Homo sapiens, HCT-116, 14C-thymidine incorporation;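 note: cells exposed to compound for 24 h, then 14C-thymidine added for a further 24 h and its uptake into DNA counted by scintillation, DMSO-only wells as control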
CDK1:Cyclin-B = molecular target: T3, CDK1:Cyclin-B (Homo sapiens, UniProt P06493); experiment: CDK1 Screening Assay; assay type: biochemical
T3 construct: purchased New England Biolabs, Beverly, Mass; 6020; host or cells: insect cells
T3 sequence (P06493 whole entry): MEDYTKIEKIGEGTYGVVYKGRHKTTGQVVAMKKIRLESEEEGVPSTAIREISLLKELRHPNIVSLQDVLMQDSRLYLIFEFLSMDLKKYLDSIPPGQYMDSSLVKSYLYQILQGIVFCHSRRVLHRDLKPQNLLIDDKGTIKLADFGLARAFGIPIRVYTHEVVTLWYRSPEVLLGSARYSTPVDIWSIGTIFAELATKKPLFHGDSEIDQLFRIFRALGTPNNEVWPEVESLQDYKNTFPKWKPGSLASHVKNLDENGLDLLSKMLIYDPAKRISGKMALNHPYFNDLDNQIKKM
T3 sequence (P14635 whole entry partner): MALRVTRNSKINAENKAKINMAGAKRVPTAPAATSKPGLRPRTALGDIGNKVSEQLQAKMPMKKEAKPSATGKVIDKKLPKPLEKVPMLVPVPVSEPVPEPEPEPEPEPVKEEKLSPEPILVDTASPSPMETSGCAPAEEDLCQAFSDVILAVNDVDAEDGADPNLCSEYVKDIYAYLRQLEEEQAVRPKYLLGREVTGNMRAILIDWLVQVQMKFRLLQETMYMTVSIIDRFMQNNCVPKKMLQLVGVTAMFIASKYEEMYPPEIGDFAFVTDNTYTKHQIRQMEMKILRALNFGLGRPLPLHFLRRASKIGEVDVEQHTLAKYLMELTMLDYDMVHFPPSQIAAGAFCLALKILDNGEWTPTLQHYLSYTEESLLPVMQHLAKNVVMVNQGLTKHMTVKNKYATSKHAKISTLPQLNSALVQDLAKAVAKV

A375 malignant melanoma = experiment: Inhibition of in vitro cell proliferation (A375); assay type: cell-based, human; settings: Homo sapiens, A-375, 14C-thymidine incorporation;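 note: cells plated for 24 h, given compound for 24 h, then labelled with 14C-thymidine for another 24 h, with DMSO-only wells as control and counts read by scintillation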
HER2 cytoplasmic domain = molecular target: T4, HER2 cytoplasmic domain (Homo sapiens, UniProt P04626); experiment: HER2 Kinase Screening Assay; assay type: biochemical; settings: > means no observed 50% inhibition at the indicated test concentration; ~ means approximately 50% inhibition at that concentration
T4 construct: polyhistidine (N)
T4 sequence (P04626 676-1255 limits assumed): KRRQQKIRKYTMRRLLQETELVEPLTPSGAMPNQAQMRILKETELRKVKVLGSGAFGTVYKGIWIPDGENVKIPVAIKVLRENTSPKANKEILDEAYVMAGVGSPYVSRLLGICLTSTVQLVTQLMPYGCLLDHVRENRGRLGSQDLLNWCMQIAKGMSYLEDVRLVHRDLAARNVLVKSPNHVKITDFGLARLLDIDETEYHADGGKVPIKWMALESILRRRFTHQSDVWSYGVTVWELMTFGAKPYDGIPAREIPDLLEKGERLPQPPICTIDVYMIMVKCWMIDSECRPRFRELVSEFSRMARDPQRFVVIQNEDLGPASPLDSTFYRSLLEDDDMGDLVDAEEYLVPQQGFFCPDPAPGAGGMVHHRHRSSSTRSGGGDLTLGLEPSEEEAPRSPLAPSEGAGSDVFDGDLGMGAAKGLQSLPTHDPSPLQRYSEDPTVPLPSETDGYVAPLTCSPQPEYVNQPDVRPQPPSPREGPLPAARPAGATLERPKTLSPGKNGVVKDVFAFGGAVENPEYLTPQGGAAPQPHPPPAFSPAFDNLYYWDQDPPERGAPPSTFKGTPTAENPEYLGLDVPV

[2] = system: HeLa cervical adenocarcinoma; experiment: Inhibition of in vitro cell proliferation (HeLa); assay type: cell-based, human; settings: Homo sapiens, 14C-thymidine incorporation;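 note: cells exposed to compound for 24 h, then labelled 24 h with methyl 14C-thymidine, with uptake into DNA counted by scintillation against DMSO-only control wells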
[3] = > means no observed 50% inhibition at the indicated test concentration, ~ means approximately 50% inhibition at that concentration, read-out: IC50 VEGF-R2

Row | Compound | IC50 (murine Aurora-A) | IC50 [1, 3] | IC50 (HCT-116 colon carcinoma) | IC50 (CDK1:Cyclin-B) | IC50 (A375 malignant melanoma) | IC50 (HER2 cytoplasmic domain) | IC50 [2] | IC50 ([1]; IC50 VEGF-R2)
1 | CON=Cc1c(N)ncnc1Oc1ccc(NC(=O)NCCN(C)C)c(Cl)c1 [Cpd 82, 1-{4-[6-amino-5-(methoxyimino-methyl)-pyrimidin-4-yloxy]-2-chloro-phenyl}-3-(2-dimethylamino-ethyl)-urea] | > 100 µM | 0.285 µM | > 10 µM | > 100 µM | > 10 µM | > 10 µM | > 10 µM | 
2 | CON=Cc1c(N)ncnc1Oc1ccc(NC(=O)NCCCO)c(Cl)c1 [Cpd 83, 1-{4-[6-amino-5-(methoxyimino-methyl)-pyrimidin-4-yloxy]-2-chloro-phenyl}-3-(3-hydroxy-propyl)-urea] | > 100 µM |  | 3.78 µM | > 100 µM | 3.94 µM | > 10 µM | 4.18 µM | 0.4 µM
3 | CON=Cc1c(N)ncnc1Oc1ccc(NC(=O)NCCCCN2CCCC2)c(Cl)c1 [Cpd 84, 1-{4-[6-amino-5-(methoxyimino-methyl)-pyrimidin-4-yloxy]-2-chloro-phenyl}-3-(4-pyrrolidin-1-yl-butyl)-urea] | > 10 µM | 0.759 µM | > 10 µM | > 100 µM | > 1 µM | > 10 µM | > 10 µM | 
4 | CON=Cc1c(N)ncnc1Oc1ccc(NC(=O)NC2CC2)c(Cl)c1 [Cpd 85, 1-{4-[6-amino-5-(methoxyimino-methyl)-pyrimidin-4-yloxy]-2-chloro-phenyl}-3-cyclopropyl-urea] | > 100 µM | 0.029 µM | > 100 µM | > 100 µM | > 10 µM | > 100 µM | > 100 µM | 
5 | CON=Cc1c(N)ncnc1Oc1ccc(NC(=O)Nc2ccccn2)c(Cl)c1 [Cpd 86, 1-{4-[6-amino-5-(methoxyimino-methyl)-pyrimidin-4-yloxy]-2-chloro-phenyl}-3-pyridin-2-yl-urea] | > 100 µM | 0.034 µM | > 10 µM | > 100 µM | 6.25 µM | > 100 µM | > 10 µM | 
6 | CON=Cc1c(N)ncnc1Oc1ccc(NC(=O)Nc2cccnc2)c(Cl)c1 [Cpd 87, 1-{4-[6-amino-5-(methoxyimino-methyl)-pyrimidin-4-yloxy]-2-chloro-phenyl}-3-pyridin-3-yl-urea] | > 100 µM | 0.01 µM | 4.67 µM | > 100 µM | 3.41 µM | > 1 µM | 4.63 µM | 
7 | CON=Cc1c(N)ncnc1Oc1ccc(NC(=O)Nc2ccncc2)c(Cl)c1 [Cpd 88, 1-{4-[6-amino-5-(methoxyimino-methyl)-pyrimidin-4-yloxy]-2-chloro-phenyl}-3-pyridin-4-yl-urea] | > 10 µM |  | 4.69 µM | > 100 µM | 4.34 µM | > 10 µM | 7.39 µM | 0.011 µM
8 | CON=Cc1c(N)ncnc1Oc1ccc(NC(=O)Nc2nc(C)cs2)c(Cl)c1 [Cpd 89, 1-{4-[6-amino-5-(methoxyimino-methyl)-pyrimidin-4-yloxy]-2-chloro-phenyl}-3-(4-methyl-thiazol-2-yl)-urea] | > 100 µM | 0.0039 µM | > 10 µM | > 100 µM | 2.19 µM | > 1 µM | > 10 µM | 
9 | CON=Cc1c(N)ncnc1Oc1ccc(NC(=O)Nc2ncc(C)s2)c(Cl)c1 [Cpd 90, 1-{4-[6-amino-5-(methoxyimino-methyl)-pyrimidin-4-yloxy]-2-chloro-phenyl}-3-(5-methyl-thiazol-2-yl)-urea] | > 10 µM | 0.037 µM | > 10 µM | > 100 µM | > 10 µM | > 1 µM | > 100 µM | 
10 | CON=Cc1c(N)ncnc1Oc1ccc(NC(=O)Nc2nccs2)c(Cl)c1 [Cpd 91, 1-{4-[6-amino-5-(methoxyimino-methyl)-pyrimidin-4-yloxy]-2-chloro-phenyl}-3-thiazol-2-yl-urea] | > 10 µM | 0.0034 µM | 3.04 µM | > 100 µM | 0.929 µM | > 1 µM | 3.24 µM | 
11 | CON=Cc1c(N)ncnc1Oc1ccc(NC(=O)Nc2nc(C)c(C)s2)c(Cl)c1 [Cpd 92, 1-{4-[6-amino-5-(methoxyimino-methyl)-pyrimidin-4-yloxy]-2-chloro-phenyl}-3-(4,5-dimethyl-thiazol-2-yl)-urea] | > 100 µM | 0.002 µM | 16.9 µM | > 100 µM | 6.92 µM | > 1 µM | 23.4 µM | 
12 | CON=Cc1c(N)ncnc1Oc1ccc(NC(=O)Nc2cc(C)on2)c(Cl)c1 [Cpd 93, 1-{4-[6-amino-5-(methoxyimino-methyl)-pyrimidin-4-yloxy]-2-chloro-phenyl}-3-(5-methyl-isoxazol-3-yl)-urea] | > 100 µM | 0.002 µM | 3.12 µM | > 100 µM | 2.12 µM | > 10 µM | 10 µM | 
13 | CON=Cc1c(N)ncnc1Oc1ccc(NC(C)=O)c(Cl)c1 [Cpd 94, N-{4-[6-amino-5-(methoxyimino-methyl)-pyrimidin-4-yloxy]-2-chloro-phenyl}-acetamide] | > 100 µM | 2.21 µM | 3.62 µM | > 100 µM | 2.69 µM | > 100 µM | 4.02 µM | 
14 | CON=Cc1c(N)ncnc1Oc1ccc(NC(=O)OC)c(Cl)c1 [Cpd 95, {4-[6-amino-5-(methoxyimino-methyl)-pyrimidin-4-yloxy]-2-chloro-phenyl}-carbamic acid methyl ester] | > 100 µM | 0.152 µM | 3.77 µM | > 100 µM | 3.5 µM | > 10 µM | 4.95 µM | 
15 | CON=Cc1c(N)ncnc1Oc1ccc(CC(=O)Nc2ccccc2)cc1 [Cpd 97, 2-{4-[6-amino-5-(methoxyimino-methyl)-pyrimidin-4-yloxy]-phenyl}-N-phenyl-acetamide] | > 100 µM | 0.0407 µM | > 10 µM | > 100 µM | > 10 µM | 1.31 µM | > 10 µM | 
16 | CON=Cc1c(N)ncnc1Oc1ccc(CC(=O)Nc2ccc(C)cc2)cc1 [Cpd 99, 2-{4-[6-amino-5-(methoxyimino-methyl)-pyrimidin-4-yloxy]-phenyl}-N-p-tolyl-acetamide] | > 100 µM | 0.008 µM | > 100 µM | > 100 µM | > 100 µM | 0.217 µM | > 100 µM | 
17 | CON=Cc1c(N)ncnc1Oc1ccc(OCc2ccccc2)cc1 [Cpd 110, 4-amino-6-[4-(benzyloxy)phenoxy]-5-pyrimidinecarboxaldehyde O-methyloxime] | > 100 µM | ~1 µM | > 100 µM | > 100 µM | > 100 µM | 0.555 µM | > 100 µM | 
